# Measurements taken from the supplement of paper PMC10307832.
# Key:
# Assay in all cases: relative viability (nuclei count vs DMSO), 5 days (fraction); higher = more cells survive
# XMD14-99 + Dasatinib = compound: CN1CCN(CC1)C2=CC(=C(C=C2)NC3=NC(=C(S3)C(=O)C4=C(C=CC=C4Cl)Cl)N)OC [XMD14-99] + Cc1nc(Nc2ncc(C(=O)Nc3c(C)cccc3Cl)s2)cc(N2CCN(CCO)CC2)n1 [Dasatinib] (partner 0.075 µM)
# Summary of the method: (§1)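 Relative viability was taken as the ratio of nuclei in treated wells to nuclei in vehicle wells. Lung cancer cell lines in 1536-well plates received compounds by pin tool one day after seeding, either one drug alone or a fixed anchor-drug dose plus five library-drug doses (not always all listed) in √10 steps. Nuclei were counted on 4× images after 5 days of treatment, and values are medians of duplicate plates.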
# AZD1208 + Trametinib = compound: N[C@@H]1CCCN(c2c(/C=C3\SC(=O)NC3=O)cccc2-c2ccccc2)C1 [AZD1208] + CC(=O)Nc1cccc(-n2c(=O)n(C3CC3)c(=O)c3c(Nc4ccc(I)cc4F)n(C)c(=O)c(C)c32)c1 [Trametinib] (partner 0.02 µM)
# Summary of the method: as §1
# XMD14-99 + Bortezomib = compound: CN1CCN(CC1)C2=CC(=C(C=C2)NC3=NC(=C(S3)C(=O)C4=C(C=CC=C4Cl)Cl)N)OC [XMD14-99] + CC(C)C[C@H](NC(=O)[C@H](Cc1ccccc1)NC(=O)c1cnccn1)B(O)O [Bortezomib] (partner 0.002 µM)
# Summary of the method: as §1
# AZD1208 + Foretinib = compound: N[C@@H]1CCCN(c2c(/C=C3\SC(=O)NC3=O)cccc2-c2ccccc2)C1 [AZD1208] + COc1cc2c(Oc3ccc(NC(=O)C4(C(=O)Nc5ccc(F)cc5)CC4)cc3F)ccnc2cc1OCCCN1CCOCC1 [Foretinib] (partner 0.25 µM)
# Summary of the method: as §1
Cell Line,relative viability (XMD14-99 + Dasatinib; first compound 0.08 µM),relative viability (XMD14-99 + Dasatinib; first compound 0.8 µM),relative viability (XMD14-99 + Dasatinib; first compound 2.53 µM),relative viability (XMD14-99 + Dasatinib; first compound 8 µM),relative viability (AZD1208 + Trametinib; first compound 0.08 µM),relative viability (AZD1208 + Trametinib; first compound 0.253 µM),relative viability (AZD1208 + Trametinib; first compound 0.8 µM),relative viability (AZD1208 + Trametinib; first compound 2.53 µM),relative viability (AZD1208 + Trametinib; first compound 8 µM),relative viability (XMD14-99 + Bortezomib; first compound 0.08 µM),relative viability (XMD14-99 + Bortezomib; first compound 0.8 µM),relative viability (XMD14-99 + Bortezomib; first compound 2.53 µM),relative viability (XMD14-99 + Bortezomib; first compound 8 µM),relative viability (AZD1208 + Foretinib; first compound 0.08 µM),relative viability (AZD1208 + Foretinib; first compound 0.253 µM),relative viability (AZD1208 + Foretinib; first compound 0.8 µM),relative viability (AZD1208 + Foretinib; first compound 2.53 µM),relative viability (AZD1208 + Foretinib; first compound 8 µM)
HCC-78,0.421,0.299,0.431,0.239,0.689,0.806,0.702,0.834,0.919,0.443,0.482,0.461,0.47,0.549,0.499,0.512,0.526,0.625
IA-LM,,,,,,,,,,0.783,0.79,0.47,0.394,1.07,1.09,0.924,1.14,1.05
NCI-H441,0.537,0.493,0.463,0.504,0.515,0.547,0.327,0.405,0.446,0.562,0.653,0.473,0.587,1.1,0.761,0.764,0.712,0.718
NCI-H322M,0.275,0.252,0.257,0.248,0.49,0.487,,0.566,0.578,1.12,1.33,1.44,1.24,0.925,0.873,0.869,0.966,0.996
NCI-H1993,0.656,0.539,0.457,0.489,0.496,0.515,0.447,0.477,0.376,1.14,0.956,0.92,0.864,0.763,0.664,0.581,0.71,0.713
COR-L23,0.556,0.452,0.337,0.183,0.511,0.581,0.525,0.57,0.301,1,0.816,0.86,0.576,0.961,1.05,0.966,0.94,0.97
NCI-H2126,0.617,0.632,0.513,0.402,0.576,0.524,0.498,0.467,0.434,1.16,1.08,1.08,0.946,1.19,0.834,0.766,1.09,0.931
LC-2-ad,0.541,0.643,0.535,0.476,0.92,0.917,0.664,0.933,0.935,0.993,0.978,1,0.732,0.903,0.924,0.871,0.85,0.912
NCI-H1915,0.28,0.289,0.293,0.236,0.271,0.288,0.247,0.277,0.232,1.03,0.97,0.872,0.904,1.12,1.09,1.11,1.11,1.03
NCI-H1793,0.403,0.362,0.355,0.334,0.356,0.566,0.33,0.473,0.342,,,,,0.578,0.653,0.545,0.749,0.631
NCI-H1792,0.73,0.71,0.631,0.503,0.424,0.368,,0.312,0.306,0.982,0.888,0.849,0.66,,,,,
NCI-H522,0.821,0.93,0.83,0.805,0.686,0.663,0.55,0.635,0.677,,,,,,,,,
NCI-H1299,,,,,,,,,,1.09,1,0.944,0.83,1.11,1.08,1.08,1.14,1.07
NCI-H1648,,,,,0.588,0.441,0.435,0.402,0.497,,,,,,,,,
SK-MES-1,0.381,0.398,0.336,0.225,0.47,0.509,0.54,0.533,0.482,,,,,0.84,0.949,0.817,0.769,0.661
NCI-H2342,0.29,0.292,0.354,0.285,0.803,0.806,0.781,0.678,0.637,,,,,0.922,0.946,0.934,1.02,0.801
SW 900,0.662,0.784,0.702,0.426,0.721,0.941,0.697,0.641,0.708,,,,,0.817,0.807,0.691,0.947,0.923
LK-2,0.279,0.214,0.281,0.204,0.574,0.502,0.511,0.445,0.474,,,,,0.935,0.707,0.821,0.574,0.421
NCI-H1395,0.391,0.425,0.457,0.363,1.03,1.08,0.932,1.01,0.878,,,,,0.988,1,1.01,0.97,0.959
A549,,,,,,,,,,,,,,0.808,1.05,0.824,0.927,0.708
NCI-H2170,0.612,0.62,0.601,0.592,0.966,1,0.869,0.868,0.57,,,,,1.07,1.07,1.08,1.03,0.878
NCI-H1563,0.452,0.464,0.449,0.447,,,,,,0.885,1.07,0.85,0.686,1.07,1.02,0.919,0.994,0.908
ABC-1,0.555,0.689,0.483,0.46,,,,,,0.296,0.343,0.346,0.281,1.16,1.02,1.13,0.92,0.967
